In patent publication US9260459B2, “4,6-hexadecadiene-2,4-dicarboxylic acid derivative” (Kyowa Hakko Kirin Co., Ltd., priority 2012, dated 2016) one finds inhibition data, which are given here for 25 molecules.

The structures appear in SMILES notation.

The subject of one test is human cervical cancer cell line HeLa. In words: Cell growth inhibition test against human cervical cancer cells. Format: cell-based. Conditions: compound concentration 20 μmol/L, 72 hours culture, read-out: inhibited the cell growth. The method, then: As a cervical cancer cell line, a human cervical cancer cell line HeLa (DS Pharma Biomedical, Cat. No. EC93021013-F0) was used.
The cell line was cultured under conditions of 37° C. and 5% carbon dioxide.
The difference in absorbance in the well in which the cells were not treated with the compound was taken as 100%, and the difference in absorbance in the well in which the cells were not inoculated was taken as 0%, and the cell growth ratio (%) was calculated based on the difference in absorbance in the compound-treated group.
With `CCC(C)CC(C)CC(C)CC(C)/C=C(C)/C=C(/CC(C)C(=O)OC1C(=O)OC(C(=O)O)C1C(=O)O)C(=O)O` (stereo not shown) [Compound 1, 4-{(4Z,6E)-4-Carboxy-2,6,8,10,12,14-hexamethylhexadec-4,6-dienoyloxy}-5-oxotetrahydrofuran-2,3-dicarboxylic Acid], the inhibition at 20 µM was ≥ 90%.
Same read-out and setting: the same measure for `CCC(C)CC(C)CC(C)CC(C)/C=C(C)/C=C(/CC(C)C(=O)OC1C(=O)OC(C(=O)OCOC(C)=O)C1C(=O)OCOC(C)=O)C(=O)OCOC(C)=O` (stereo not shown) [Compound 27, Di(acetoxymethyl) 4-{(4Z,6E)-4-(acetoxymethoxycarbonyl)-2,6,8,10,12,14-hexamethylhexadec-4,6-dienoyloxy}-5-oxotetrahydrofuran-2,3-dicarboxylate]: ≥ 90%.

The test is the same for the next values; noted with them: compound concentration 200 μmol/L, 72 hours culture, read-out: inhibited the cell growth.
For the molecule `CCC(C)CC(C)CC(C)CC(C)/C=C(C)/C=C(/CC(C)C(=O)OC1C(=O)OC(C(=O)OC)C1C(=O)OC)C(=O)OC` (stereo not shown) [Compound 5, Dimethyl 4-{(4Z,6E)-4-(methoxycarbonyl)-2,6,8,10,12,14-hexamethylhexadec-4,6-dienoyloxy}-5-oxotetrahydrofuran-2,3-dicarboxylate], the inhibition at 200 µM is ≥ 90%.
Still for that read-out and setting: the value for `CCC(C)CC(C)CC(C)CC(C)/C=C(C)/C=C(/CC(C)C(=O)OC(C(=O)O)C(C(=O)OCOC(C)=O)C(O)C(=O)OCOC(C)=O)C(=O)O` (stereo not shown) [Compound 30, (2Z,4E)-2-[3-{4-(Acetoxymethoxy)-2-{(acetoxymethoxy)carbonyl}-1-carboxy-3-hydroxy-4-oxobutoxy}-2-methyl-3-oxopropyl]-4,6,8,10,12-pentamethyltetradec-2,4-dienoic Acid] was ≥ 90%; that for `CCC(C)CC(C)CC(C)CC(C)/C=C(C)/C=C(/CC(C)C(=O)O[C@H]1CCOC1=O)C(=O)O` (stereo partly drawn) [Compound 15, (2Z,4E)-4,6,8,10,12-Pentamethyl-2-[2-methyl-3-oxo-3-{(S)-2-oxotetrahydrofuran-3-yloxy}propyl]tetradec-2,4-dienoic Acid] was ≥ 90%; that for `CCOP(=O)(OCC)O[C@H](C(=O)O)[C@H](OC(=O)C(C)C/C(=C/C(C)=C/C(C)CC(C)CC(C)CC(C)CC)C(=O)O)C(=O)O` (stereo partly drawn) [Compound 17, (2S,3S)-2-{(4Z,6E)-4-Carboxy-2,6,8,10,12,14-hexamethylhexadec-4,6-dienoyloxy}-3-(diethoxyphosphoryloxy)succinic Acid] was ≥ 90%.
Consider `CCC(C)CC(C)CC(C)CC(C)/C=C(C)/C=C(/CC(C)C(=O)CCCO)C(=O)O` (stereo not shown) [Compound 13, (2Z,4E)-2-{3-(3-Hydroxypropyl)-2-methyl-3-oxopropyl}-4,6,8,10,12-pentamethyltetradec-2,4-dienoic Acid], for which the inhibition at 200 µM was ≥ 90%.
For `CCC(C)CC(C)CC(C)CC(C)/C=C(C)/C=C(/CC(C)C(=O)O)C(=O)OC(C)(C)C` (stereo not shown) [Compound 8, (4Z,6E)-4-(tert-Butoxycarbonyl)-2,6,8,10,12,14-hexamethylhexadec-4,6-dienoic Acid], the inhibition at 200 µM is ≥ 90%.
Still for that read-out and setting: the value for `CCC(C)CC(C)CC(C)CC(C)/C=C(C)/C=C(/CC(C)C(=O)OCC(=O)O)C(=O)O` (stereo not shown) [Compound 9, (2Z,4E)-2-{3-(Carboxymethoxy)-2-methyl-3-oxopropyl}-4,6,8,10,12-pentamethyltetradec-2,4-dienoic Acid] was ≥ 90%; that for `CCC(C)CC(C)CC(C)CC(C)/C=C(C)/C=C(/CC(C)C(=O)OC(C(=O)OC)C(C(=O)OC)C(O)C(=O)OC)C(=O)OC` (stereo not shown) [Compound 7, Trimethyl 1-hydroxy-3-{(4Z,6E)-4(methoxycarbonyl)-2,6,8,10,12,14-hexamethylhexadec-4,6-dienoyloxy}-propane-1,2,3-tricarboxylate] was ≥ 90%.
In the case of `CCC(C)CC(C)CC(C)CC(C)/C=C(C)/C=C(/CC(C)C(=O)OC(C(=O)O)C(=O)O)C(=O)O` (stereo not shown) [Compound 22, 2-{(4Z,6E)-4-Carboxy-2,6,8,10,12,14-hexamethylhexadec-4,6-dienoyloxy}malonic Acid], the inhibition at 200 µM was ≥ 90%.
Still for that read-out and setting: the same measure for `CCC(C)CC(C)CC(C)CC(C)/C=C(C)/C=C(/CC(C)C(=O)C[C@@H](O)CO)C(=O)O` (stereo partly drawn) [Compound 19, (2Z,4E)-2-[3-{(R)-2,3-Dihydroxypropyl}-2-methyl-3-oxopropyl]-4,6,8,10,12-pentamethyltetradec-2,4-dienoic Acid]: ≥ 90%; for `CCC(C)CC(C)CC(C)CC(C)/C=C(C)/C=C(/CC(C)C(=O)OCOC(C)=O)C(=O)OCOC(C)=O` (stereo not shown) [Compound 29, Bis(acetoxymethyl) (Z)-2-methyl-4-{(E)-2,4,6,8,10-pentamethyldodec-2-enylidene}pentanedioate]: ≥ 90%; for `CCC(C)CC(C)CC(C)CC(C)/C=C(C)/C=C(/CC(C)C(=O)OCC[C@H](O)C(=O)O)C(=O)O` (stereo partly drawn) [Compound 16, (2Z,4E)-2-[3-{(S)-3-Carboxy-3-hydroxypropoxy}-2-methyl-3-oxopropyl]-4,6,8,10,12-pentamethyltetradec-2,4-dienoic Acid]: ≥ 90%.
On the same count and under the same terms, the value for `CCC(C)CC(C)CC(C)CC(C)/C=C(C)/C=C(/CC(C)C(=O)OC(C(=O)O)C(C(=O)OC)C(O)C(=O)OC)C(=O)OC` (stereo not shown) [Compound 6, 4-Hydroxy-5-methoxy-3-(methoxycarbonyl)-2-{(4Z,6E)-4-(methoxycarbonyl)-2,6,8,10,12,14-hexamethylhexadec-4,6-dienoyloxy}-5-oxopentanoic Acid] was ≥ 90%; that for `CCC(C)CC(C)CC(C)CC(C)/C=C(C)/C=C(/CC(C)C(=O)OCOC(C)=O)C(=O)O` (stereo not shown) [Compound 28, (2Z,4E)-2-{3-(Acetoxymethoxy)-2-methyl-3-oxopropyl}-4,6,8,10,12-pentamethyltetradec-2,4-dienoic Acid] was ≥ 90%; that for `CCC(C)CC(C)CC(C)CC(C)/C=C(C)/C=C(/CC(C)C(=O)OCCC(=O)O)C(=O)O` (stereo not shown) [Compound 11, (2Z,4E)-2-{3-(2-Carboxyethoxy)-2-methyl-3-oxopropyl}-4,6,8,10,12-pentamethyltetradec-2,4-dienoic Acid] was ≥ 90%.
On the same count and under the same terms, the value for `CCC(C)CC(C)CC(C)CC(C)/C=C(C)/C=C(/CC(C)C(=O)[C@@H]1COC(=O)C1)C(=O)O` (stereo partly drawn) [Compound 21, (2Z,4E)-4,6,8,10,12-Pentamethyl-2-[2-methyl-3-oxo-3-{(S)-5-oxotetrahydrofuran-3-yl}propyl]tetradec-2,4-dienoic Acid] was ≥ 90%.
Take `CCC(C)CC(C)CC(C)CC(C)/C=C(C)/C=C(/CC(C)C(=O)OC(C(=O)O)C(C(=O)O)C(=O)O)C(=O)O` (stereo not shown) [Compound 23, 2-{(4Z,6E)-4-Carboxy-2,6,8,10,12,14-hexamethylhexadec-4,6-dienoyloxy}ethane-1,1,2-tricarboxylic Acid]: the inhibition at 200 µM is ≥ 90%.
Still for that read-out and setting: the value for `CCC(C)CC(C)CC(C)CC(C)/C=C(C)/C=C(/CC(C)C(=O)OCC(CC(=O)O)C(=O)O)C(=O)O` (stereo not shown) [Compound 24, 2-[{(4Z,6E)-4-Carboxy-2,6,8,10,12,14-hexamethylhexadec-4,6-dienoyloxy}methyl]succinic Acid] was ≥ 90%.
As for `CCC(C)CC(C)CC(C)CC(C)/C=C(C)/C=C(/CC(C)C(=O)CCCC(=O)O)C(=O)O` (stereo not shown) [Compound 12, (2Z,4E)-2-{3-(3-Carboxypropyl)-2-methyl-3-oxopropyl}-4,6,8,10,12-pentamethyltetradec-2,4-dienoic Acid], the inhibition at 200 µM is ≥ 90%.
Same read-out and setting: the same measure for `CCC(C)CC(C)CC(C)CC(C)/C=C(C)/C=C(/CC(C)C(=O)OC)C(=O)O` (stereo not shown) [Compound 10, (2Z,4E)-2-(3-Methoxy-2-methyl-3-oxopropyl)-4,6,8,10,12-pentamethyltetradec-2,4-dienoic Acid]: ≥ 90%; for `CCC(C)CC(C)CC(C)CC(C)/C=C(C)/C=C(/CC(C)C(=O)O[C@@H](CC(=O)O)C(=O)O)C(=O)O` (stereo partly drawn) [Compound 14, (2S)-2-{(4Z,6E)-4-Carboxy-2,6,8,10,12,14-hexamethylhexadec-4,6-dienoyloxy}succinic Acid]: ≥ 90%.
On to `CCC(C)CC(C)CC(C)CC(C)/C=C(C)/C=C(/CC(C)C(=O)[C@@H](CC)C(=O)O)C(=O)O` (stereo partly drawn) [Compound 18, (2Z,4E)-2-[3-{(R)-1-Carboxypropyl}-2-methyl-3-oxopropyl]-4,6,8,10,12-pentamethyltetradec-2,4-dienoic Acid], for which the inhibition at 200 µM is ≥ 90%.
Same read-out and setting: the value for `CCC(C)CC(C)CC(C)CC(C)/C=C(C)/C=C(/CC(C)C(=O)O[C@@H]1CCOC1=O)C(=O)O` (stereo partly drawn) [Compound 20, (2Z,4E)-4,6,8,10,12-Pentamethyl-2-[2-methyl-3-oxo-3-{(R)-2-oxotetrahydrofuran-3-yloxy}propyl]tetradec-2,4-dienoic Acid] was ≥ 90%.
